{
  "source": "patent US11331369B2",
  "about": "“Endoparasitic depsipeptides” (Zoetis Services LLC, priority 2017, dated 2022)",
  "data": [
    {"tested_on": "microfilariae of Dirofilaria immitis", "assay": "Dirofilaria immitis, Microfilaria (DiMF) In vitro Assay", "type": "cell-based", "conditions": "72 h, read-out: DiMF Minimum Effective Dose (MED), approximately 72 hours incubation, microfilariae assessed for survival or paralysis", "units": {"minimal effective concentration": "µM"}, "values": [
      {"smiles": "Cc1ncn(Cc2ccc(C[C@H]3OC(=O)[C@H](CC(C)C)N(C)C(=O)[C@@H](C)OC(=O)[C@H](CC(C)C)N(C)C(=O)[C@@H](Cc4ccccc4)OC(=O)[C@H](CC(C)C)N(C)C(=O)[C@@H](C)OC(=O)[C@H](CC(C)C)N(C)C3=O)cc2)c1C", "note": "[Example 8-11, (3S,6R,9S,12R,15S,18R,21S,24R)-6-benzyl-18-(4-((4,5-dimethyl-1H-imidazol-1-yl)methyl)benzyl)-3,9,15,21-tetraisobutyl-4,10,12,16,22,24-hexamethyl-1,7,13,19-tetraoxa-4,10,16,22-tetraazacyclotetracosan-2,5,8,11,14,17,20,23-octaone]", "minimal effective concentration": "0.01 to 0.1"},
      {"smiles": "CC(C)C[C@H]1C(=O)O[C@H](Cc2ccc(Cn3ccnc3CF)cc2)C(=O)N(C)[C@@H](CC(C)C)C(=O)O[C@H](C)C(=O)N(C)[C@@H](CC(C)C)C(=O)O[C@H](Cc2ccccc2)C(=O)N(C)[C@@H](CC(C)C)C(=O)O[C@H](C)C(=O)N1C", "note": "[Example 8-14, (3S,6R,9S,12R,15S,18R,21S,24R)-6-benzyl-18-(4-((2-(fluoromethyl)-1H-imidazol-1-yl)methyl)benzyl)-3,9,15,21-tetraisobutyl-4,10,12,16,22,24-hexamethyl-1,7,13,19-tetraoxa-4,10,16,22-tetraazacyclotetracosan-2,5,8,11,14,17,20,23-octaone]", "minimal effective concentration": "0.01 to 0.1"},
      {"smiles": "CC(C)C[C@H]1C(=O)O[C@H](Cc2ccc(CN3CCSCC3)cc2)C(=O)N(C)[C@@H](CC(C)C)C(=O)O[C@H](C)C(=O)N(C)[C@@H](CC(C)C)C(=O)O[C@H](Cc2ccc(CN3CCSCC3)cc2)C(=O)N(C)[C@@H](CC(C)C)C(=O)O[C@H](C)C(=O)N1C", "note": "[Example 9-2, (3S,6R,9S,12R,15S,18R,21S,24R)-3,9,15,21-tetraisobutyl-4,6,10,16,18,22-hexamethyl-12,24-bis(4-(thiomorpholinomethyl)benzyl)-1,7,13,19-tetraoxa-4,10,16,22-tetraazacyclotetracosan-2,5,8,11,14,17,20,23-octaone]", "minimal effective concentration": "0.01 to 0.1"},
      {"smiles": "CC(C)C[C@H]1C(=O)O[C@H](Cc2ccc(CN3CCC(F)(F)CC3)cc2)C(=O)N(C)[C@@H](CC(C)C)C(=O)O[C@H](C)C(=O)N(C)[C@@H](CC(C)C)C(=O)O[C@H](Cc2ccc(CN3CCC(F)(F)CC3)cc2)C(=O)N(C)[C@@H](CC(C)C)C(=O)O[C@H](C)C(=O)N1C", "note": "[Example 9-4, (3S,6R,9S,12R,15S,18R,21S,24R)-6,18-bis(4-((4,4-difluoropiperidin-1-yl)methyl)benzyl)-3,9,15,21-tetraisobutyl-4,10,12,16,22,24-hexamethyl-1,7,13,19-tetraoxa-4,10,16,22-tetraazacyclotetracosan-2,5,8,11,14,17,20,23-octaone]", "minimal effective concentration": "0.01 to 0.1"},
      {"smiles": "CC(C)C[C@H]1C(=O)O[C@H](Cc2ccc(N3CCCC(F)(F)C3)cc2)C(=O)N(C)[C@@H](CC(C)C)C(=O)O[C@H](C)C(=O)N(C)[C@@H](CC(C)C)C(=O)O[C@H](Cc2ccc(CN3CCCC(F)(F)C3)cc2)C(=O)N(C)[C@@H](CC(C)C)C(=O)O[C@H](C)C(=O)N1C", "note": "[Example 9-5, (3S,6R,9S,12R,15S,18R,21S,24R)-6-(4-(3,3-difluoropiperidin-1-yl)benzyl)-18-(4-((3,3-difluoropiperidin-1-yl)methyl)benzyl)-3,9,15,21-tetraisobutyl-4,10,12,16,22,24-hexamethyl-1,7,13,19-tetraoxa-4,10,16,22-tetraazacyclotetracosan-2,5,8,11,14,17,20,23-octaone]", "minimal effective concentration": "0.01 to 0.1"},
      {"smiles": "CC(C)C[C@H]1C(=O)O[C@H](Cc2ccc(Cn3cnnn3)cc2)C(=O)N(C)[C@@H](CC(C)C)C(=O)O[C@H](C)C(=O)N(C)[C@@H](CC(C)C)C(=O)O[C@H](Cc2ccc(Cn3cnnn3)cc2)C(=O)N(C)[C@@H](CC(C)C)C(=O)O[C@H](C)C(=O)N1C", "note": "[Example 9-18, (3S,6R,9S,12R,15S,18R,21S,24R)-6,18-bis(4-((1H-tetrazol-1-yl)methyl)benzyl)-3,9,15,21-tetraisobutyl-4,10,12,16,22,24-hexamethyl-1,7,13,19-tetraoxa-4,10,16,22-tetraazacyclotetracosan-2,5,8,11,14,17,20,23-octaone]", "minimal effective concentration": "0.01 to 0.1"}
    ]}
  ]
}
